Source: ChEMBL document CHEMBL1132678, “Imidazole-containing diarylether and diarylsulfone inhibitors of farnesyl-protein transferase” (Bioorg Med Chem Lett, 1999)

Tests used:
[1] = biological target: Protein farnesyltransferase (Bos taurus, UniProt P29702+P49355); test: Inhibition of bovine Farnesyltransferase in vitro.; format: protein-complex assay
Rat1 = test: Inhibition of proliferation of v-Ha-ras-transformed RAT1 cells on poly-(HEMA)-coated plates; format: functional, cell-based; conditions: Rattus norvegicus
[2] = biological target: Protein farnesyltransferase (Homo sapiens, UniProt P49354+P49356); test: Inhibition of Farnesyltransferase; format: protein-complex assay

O=[N+]([O-])c1ccc(CN(Cc2c[nH]cn2)c2cccc(Oc3ccccc3)c2)cc1
IC50 [1]: 3200 nM

Cc1ncc(CNc2ccc(S(=O)(=O)c3ccccc3)cc2)n1Cc1ccc(C#N)cc1
IC50 [1]: 93 nM | IC50 (Rat1): 177 nM

N#Cc1ccc(Cn2cncc2CNc2ccc(Oc3ccccc3)cc2)cc1
IC50 [1]: 1300 nM

N#Cc1ccc(CN(Cc2cncn2Cc2ccc(C#N)cc2)c2ccc(Oc3ccccc3)cc2)cc1
IC50 [1]: 8 nM

Cc1cc(NCc2cnc(C)n2Cc2ccc(C#N)cc2)ccc1S(=O)(=O)c1ccccc1
IC50 [1]: 0.45 nM | IC50 (Rat1): 28 nM

N#Cc1ccc(Cn2cncc2CNc2ccc(C(=O)c3ccccc3)cc2)cc1
IC50 [1]: 0.8 nM

N[C@@H](CS)CNc1cccc(Oc2cccc(C(=O)O)c2)c1
IC50 [1]: 0.25 nM

O=[N+]([O-])c1ccc(CN(Cc2cnc[nH]2)c2ccc(Oc3ccccc3)cc2)cc1
IC50 [1]: 1000 nM

CCCCN(Cc1cnc[nH]1)c1ccc(Oc2ccccc2)cc1
IC50 [1]: > 100000 nM

CSCC[C@H](NC(=O)[C@H](Cc1c[nH]c2ccccc12)NC(=O)[C@@H](NC(=O)[C@@H](N)CS)C(C)C)C(=O)O
IC50 [2]: 525 nM

CCCCN(Cc1cn(Cc2ccc(C#N)cc2)cn1)c1ccc(Oc2ccccc2)cc1
IC50 [1]: > 100000 nM

O=C(O)c1cccc(Oc2ccc(N(Cc3c[nH]cn3)Cc3c[nH]cn3)cc2)c1
IC50 [1]: 2.6 nM

c1ccc(Oc2ccc(NCc3cnc[nH]3)cc2)cc1
IC50 [1]: > 100000 nM

Cc1cc(NCc2cncn2Cc2ccc(C#N)cc2)ccc1S(=O)(=O)c1ccccc1
IC50 [1]: 1 nM | IC50 (Rat1): 16 nM

CCCCN(Cc1cncn1Cc1ccc(C#N)cc1)c1ccc(Oc2ccccc2)cc1
IC50 [1]: 42 nM

O=C(O)c1cccc(Oc2cccc(N(Cc3cnc[nH]3)Cc3cnc[nH]3)c2)c1
IC50 [1]: 19 nM

Cc1ncc(CN(Cc2ccc(C#N)cc2)c2ccc(S(=O)(=O)c3ccccc3)cc2)n1Cc1ccc(C#N)cc1
IC50 [1]: 81 nM

Cc1cc(N(Cc2cnc(C)n2Cc2ccc(C#N)cc2)CC2CC2)ccc1S(=O)(=O)c1ccccc1
IC50 [1]: 8 nM | IC50 (Rat1): 109 nM

N[C@H](CS)CNc1ccc(Oc2cccc(C(=O)O)c2)cc1
IC50 [1]: 0.4 nM

N#Cc1ccc(Cn2cncc2CNc2ccc(S(=O)(=O)c3ccccc3)cc2)cc1
IC50 [1]: 0.7 nM | IC50 (Rat1): 31 nM

CCCCN(Cc1cncn1Cc1ccc(C#N)cc1)c1ccc(Sc2ccccc2)cc1
IC50 [1]: 140 nM

Cc1cc(N(Cc2cnc(C)n2Cc2ccc(C#N)cc2)C(=O)C2CC2)ccc1S(=O)(=O)c1ccccc1
IC50 [1]: 232 nM
